Measurements taken from PubChem BioAssay (NCI).
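How tested: cells in 96-well plates exposed to compound for 48 hours at five concentrations. The concentration for 50% growth inhibition is given as GI50. The concentration for full growth arrest is given as TGI.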

Assays:
Experiment in all cases: NCI tumour cell line growth inhibition, 48 h
[1] = tested on: MDA-MB-231 breast
[2] = tested on: CAKI-1 renal
[3] = tested on: MDA-MB-435
[4] = tested on: T-47D breast
[5] = tested on: BT-549 breast
[6] = tested on: MDA-N
[7] = tested on: DU-145 prostate
[8] = tested on: LXFL 529 NSCLC
[9] = tested on: RXF-631 renal
[10] = tested on: 786-0 renal
[11] = tested on: XF 498 CNS
[12] = tested on: SN12K1 renal
[13] = tested on: P388/ADR leukemia
[14] = tested on: HOP-18 NSCLC
[15] = tested on: P388 leukemia

| Compound | TGI [1] | TGI [2] | TGI [3] | TGI [4] | TGI [5] | TGI [6] | TGI [7] | TGI [8] | TGI [11] | TGI [14] | other results |
| --- | --- | --- | --- | --- | --- | --- | --- | --- | --- | --- | --- |
| CC(C)(C)[Si](C)(C)OCC1OC(n2cnc3c(N)ncnc32)CC1O (stereo unspecified) | > 100 µM | > 100 µM | > 100 µM | > 100 µM | > 100 µM | > 100 µM | > 100 µM | – | – | – | – |
| c1coc(CNc2ncnc3[nH]ncc23)c1 | – | > 100 µM | – | – | – | – | – | > 100 µM | > 100 µM | – | TGI [9]: > 100 µM; TGI [10]: > 100 µM |
| O=C1NC2=C(CCCC/C2=N\O)C12CCCCC2 | – | – | – | – | – | – | – | > 100 µM | > 100 µM | – | – |
| Brc1ccc(C2CC(c3cccc4ccccc34)=Nc3ccccc3S2)cc1 (stereo unspecified) | – | > 100 µM | – | – | – | – | – | > 100 µM | > 100 µM | – | – |
| O=C1CSC(=S)N1 | > 100 µM | > 100 µM | – | > 100 µM | – | > 100 µM | > 100 µM | – | – | – | TGI [10]: > 100 µM |
| CC(=O)c1ccc2c(c1)c1c(C)c3c[n+](C)ccc3c(C)c1n2C | – | > 76 µM | – | – | – | – | – | – | 17.1 µM | 75.9 µM | TGI [12]: 13.7 µM; TGI [13]: 21.6 µM; TGI [15]: 4.68 µM |
| CCOC(=O)NC(Nc1ncccn1)(C(=O)OCC)C(F)(F)F (stereo unspecified) | > 100 µM | > 100 µM | > 100 µM | > 100 µM | > 100 µM | > 100 µM | > 100 µM | – | – | – | – |
| N#CN=[N+]([O-])c1ccc(C(=O)O)cc1 | – | – | 31.8 µM | – | 31.4 µM | – | – | – | – | – | – |
| Cc1cc(C)n(-c2nsc3ccccc23)n1 | – | – | – | – | – | – | – | > 100 µM | – | > 100 µM | – |
| Cc1ccc2c(c1)C(=O)N(N(C)C)CC(=O)N2 | – | > 100 µM | – | – | – | – | – | > 100 µM | > 100 µM | > 100 µM | – |
| Fc1ccc(C2CC(c3cccc(Nc4ccncc4)c3)=NN2c2ccc(Cl)cc2)cc1 (stereo unspecified) | 2.86 µM | 2.71 µM | 2.95 µM | – | 4.26 µM | – | 3.21 µM | – | – | – | GI50 [1]: 1.51 µM; GI50 [2]: 1.39 µM; GI50 [3]: 1.58 µM; GI50 [5]: 2.04 µM; GI50 [7]: 1.78 µM |
| CSc1nc(NC2OCC(O)C(O)C2O)c(N)c(=O)[nH]1 (stereo unspecified) | – | – | – | – | – | – | – | – | – | > 100 µM | TGI [12]: > 100 µM; TGI [13]: > 100 µM; TGI [15]: > 100 µM |
| Cc1cc2c(cc1C)OC(=O)CC2 | > 100 µM | > 100 µM | > 100 µM | > 100 µM | > 100 µM | > 100 µM | > 100 µM | – | – | – | TGI [10]: > 100 µM |
